Source: the supplement of paper PMC11451515

Key:
Test in all cases: AUC of viability dose-response curve (% viability x log10 dose units); higher = less sensitive
Details in all cases: 48 h
P12-Ichikawa = system: P12-Ichikawa
How it was run: (§1)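 Leukemia cells adapted to each medium were seeded at 500 or 1000 cells/well in 1536-well plates and dosed with library compounds in DMSO at 11 threefold doses from 47 μM to 0.79 nM for 48 h at 37°C. CellTiter-Glo One luminescence was normalised per plate to DMSO and cell-free wells, then fitted with a four-parameter log-logistic model over log10 doses. Area under the curve was taken from this fit by the trapezoidal rule, with curves above full viability scaled and curves failing quality control removed.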

NOMO1 = system: NOMO1
How it was run: as §1

SEM cells = system: SEM cells
How it was run: as §1

[1] = RPMI 5 mM glucose + 10% dialyzed FBS

SMILES | AUC of viability dose-response curve (P12-Ichikawa; HPLM + 10% dialyzed FBS) | AUC of viability dose-response curve (P12-Ichikawa; RPMI 5 mM glucose + 10% FBS) | AUC of viability dose-response curve (P12-Ichikawa; [1]) | AUC of viability dose-response curve (NOMO1; HPLM + 10% dialyzed FBS) | AUC of viability dose-response curve (NOMO1; RPMI 5 mM glucose + 10% FBS) | AUC of viability dose-response curve (NOMO1; [1]) | AUC of viability dose-response curve (SEM cells; HPLM + 10% dialyzed FBS) | AUC of viability dose-response curve (SEM cells; RPMI 5 mM glucose + 10% FBS) | AUC of viability dose-response curve (SEM cells; [1])
N#C/C(=C\c1ccc(O)c(O)c1)C(=O)NCc1ccccc1 | 448 | 436 | 421 | 446 | 447 | 460 | 447 | 440 | 440
N[S+](=O)([O-])c1cc2c(cc1Cl)NC(C(Cl)Cl)N[S+]2(=O)[O-] (stereo unspecified) | 456 | 459 | 467 | 450 | 453 | 442 | 431 | 450 | 447
C=C1C(=O)[C@@]23C(CC[C@@H]1[C@H]2O)[C@@]12CO[C@]3(O)[C@@H](O)[C@@H]1C(C)(C)CC[C@@H]2O (stereo partly specified) | 409 | 394 | 389 | 435 | 444 | 451 |  |  | 
Cc1c(-c2cccc3c(CCCOc4cccc5ccccc45)c(C(=O)O)n(Cc4cccnc4)c23)c(COc2ccc(N3CCN([S+](=O)([O-])N(C)C)CC3)cc2)nn1C | 427 | 421 | 418 | 407 | 416 | 423 | 415 | 456 | 423
O=C(O)CCCCC(CCSCc1ccccc1)SCc1ccccc1 (stereo unspecified) | 433 | 462 | 457 | 446 | 457 | 451 | 463 | 458 | 467
Cc1ccccc1C(OCCN(C)C)c1ccccc1 (stereo unspecified) | 446 | 476 | 469 | 462 | 468 | 457 | 453 | 463 | 465
CC(C)N(C[C@H]1O[C@@H](n2cnc3c(N)ncnc32)[C@H](O)[C@@H]1O)[C@H]1C[C@@H](CCc2nc3cc(C(C)(C)C)ccc3[nH]2)C1 | 320 | 450 | 383 | 386 | 450 | 429 | 411 | 333 | 399
N#Cc1ccc(Oc2ccc3c(c2)COB3O)cc1 | 425 | 463 | 460 | 413 | 463 | 466 | 458 | 458 | 461
CCN1C[C@H](C)[N]2C(=C(O)C3=C2\C(=N/N(CC4=CC=C(F)C(=C4)Cl)C3=O)C(=O)NC)C1=O | 458 | 460 | 459 | 408 | 442 | 427 | 440 | 409 | 443
N[C@H]2CN(CC12CC1)c3c(F)cc4c(c3Cl)[N@@](C=C(C4=O)C(=O)O)C5C[C@H]5F (stereo partly specified) | 439 | 417 | 395 | 420 | 387 | 413 | 412 | 431 | 398
CCn1c(-c2nonc2N)nc2c(C#CC(C)(C)O)ncc(OC[C@H]3CCCNC3)c21 | 358 | 282 | 313 | 360 | 388 | 390 | 341 | 397 | 345
C[C@]12Cc3cn[nH]c3C[C@@H]1CC[C@@H]1[C@@H]2CC[C@@]2(C)[C@H]1CC[C@]2(C)O | 459 | 466 | 463 | 458 | 467 | 442 | 414 | 473 | 473
O=C1CCC[C@@H]2[C@H]3CCCN4CCC[C@@H](CN12)[C@@H]34 | 426 | 396 | 389 |  |  |  | 324 | 390 | 347
COc1cc([C@@H](CC(=O)O)c2ccc(C)c(CN3C[C@@H](C)Oc4ccccc4[S+]3(=O)[O-])c2)cc2nnn(C)c12 | 407 | 446 | 452 | 403 | 418 | 431 | 452 | 350 | 367
COc1ccc(C(CN(C)C)C2(O)CCCCC2)cc1 (stereo unspecified) | 459 | 405 | 461 |  |  |  | 476 | 475 | 424
Cc1nc2cc(C(=O)N3CCC4(CC3)CC(=O)c3c(cnn3C(C)C)C4)ccc2[nH]1 | 457 | 469 | 458 | 465 | 471 | 455 |  |  | 
CCc1cc2c(cc1N1CCC(N3CCOCC3)CC1)C(C)(C)c1[nH]c3cc(C#N)ccc3c1C2=O | 464 | 443 | 451 |  |  |  |  |  | 
Cc1nn(C)c(COc2ccc(N3CCN([S+](=O)([O-])N(C)C)CC3)cc2)c1-c1cccc2c(CCCOc3cccc4ccccc34)c(C(=O)O)n(CCN3CCOCC3)c12 | 392 | 463 | 456 |  |  |  | 465 | 377 | 458
